Laboratory results taken from paper PMC6112376, “Comprehensive Analyses and Prioritization of Tox21 10K Chemicals Affecting Mitochondrial Function by in-Depth Mechanistic Studies” (Environmental Health Perspectives, 2018).
Where two headings read alike, the source gives them in different places.

Key:
HepG2 cells [1] = settings: cited from earlier work
rat primary hepatocytes = assay: MMP assay in rat primary hepatocytes; settings: for IC50: read-out: MMP assays IC50 (µM) Rat Hepatocytes
HepG2 cells [2] = settings: for IC50: read-out: MMP assays IC50 (µM) HepG2
[3] = read-out: MMP assays IC50 (µM) qHTS-HepG2
[4] = rat hepatocytes, mean ± SD of three experiments
[5] = HepG2 cells, single number from one experiment
[6] = read-out: MMP assays IC50 (µM), qHTS-HepG2

| SMILES | MMP assays efficacy (%) qHTS-HepG2 (HepG2 cells [1]) | IC50 (HepG2 cells [1]; [3]) [µM] | MMP assays IC50 (µM) Rat Hepatocytes (rat primary hepatocytes; [4]) | MMP assays efficacy (%) Rat Hepatocytes (rat primary hepatocytes; [4]) | MMP assays IC50 (µM) HepG2 (HepG2 cells [2]; [5]) | MMP assays efficacy (%) HepG2 (HepG2 cells [2]; [5]) | IC50 (rat primary hepatocytes; [4]) [µM] | IC50 (HepG2 cells [2]; [5]) [µM] | MMP assays IC50 (µM) qHTS-HepG2 (HepG2 cells [1]) | IC50 (rat primary hepatocytes; Rattus norvegicus, Hepatocyte) [µM] | MMP assays IC50 (µM) HepG2 (HepG2 cells [2]) | MMP assays efficacy (%) HepG2 (HepG2 cells [2]) | IC50 (HepG2 cells [1]; [6]) [µM] |
| --- | --- | --- | --- | --- | --- | --- | --- | --- | --- | --- | --- | --- | --- |
| C(=Cc1ccncc1)c1ccccc1 [Compound 4-Styrylpyridine] | -65±10% | 11.2 ± 5.54 | inactive | inactive | inactive | inactive |  |  |  |  |  |  |  |
| O=Cc1c2ccccc2c(Cl)c2ccccc12 [Compound 10-Chloro-9-anthraldehyde] | -82±26% | 13.9 ± 7.82 |  | -47±21% | inactive | inactive | 24.3 ± 28.8 |  |  |  |  |  |  |
| OC1CCCCCCCCCCC1 [Cyclododecanol] | -66±13% | 48.8 ± 3.84 | inactive | inactive | inactive | inactive |  |  |  |  |  |  |  |
| O=C1c2ccccc2C(=O)C1c1ccc2ccccc2n1 [D&C Yellow 11] | -76±6% | 0.38 ± 0.13 | inactive | inactive |  | -75% |  | 0.44 |  |  |  |  |  |
| C[C@@H]1C[C@H]2[C@@H]3CCC4=CC(=O)C=C[C@]4(C)[C@@]3(F)[C@@H](O)C[C@]2(C)[C@@]1(O)C(=O)COC(=O)c1cccc(S(=O)(=O)[O-])c1.[Na+] [Dexamethazone metasulfobenzoate sodium] | inactive |  | inactive | inactive | inactive | inactive |  |  | inactive |  |  |  |  |
| CC(=O)OCC(=O)[C@@]1(OC(C)=O)[C@@H](C)C[C@H]2[C@@H]3C[C@H](F)C4=CC(=O)C=C[C@]4(C)[C@@]3(F)[C@@H](O)C[C@@]21C [Diflorasone diacetate] | -50±7% | 28.7 ± 1.87 | inactive | inactive | inactive | inactive |  |  |  |  |  |  |  |
| CC(C)[C@@H](C)/C=C/[C@@H](C)[C@H]1CC[C@H]2/C(=C/C=C3\C[C@@H](O)CC[C@@H]3C)CCC[C@]12C [Dihydrotachysterol] | -78±16% | 32.7 ± 1.32 | inactive | inactive | inactive | inactive |  |  |  |  |  |  |  |
| CC(=O)OCCN(CCOC(C)=O)c1ccc(N=Nc2ccc([N+](=O)[O-])cc2C#N)cc1 [Disperse Red 82] | -87±5% | 8 ± 1.45 |  | -59±9% |  | -71% | 11.7 ± 8.76 | 6.31 |  |  |  |  |  |
| CC(=O)O[C@@]12CO[C@@H]1C[C@H](O)[C@@]1(C)C(=O)[C@H](O)C3=C(C)[C@@H](OC(=O)[C@H](O)[C@@H](NC(=O)OC(C)(C)C)c4ccccc4)C[C@@](O)([C@@H](OC(=O)c4ccccc4)[C@H]21)C3(C)C [Docetaxel] | -57±17% | 15 ± 29.8 |  |  |  |  |  |  |  | 12.1 ± 4.78 | inactive | inactive |  |
| CCCCCCCCCCCCOC(=O)c1ccc(O)cc1 [Dodecylparaben] | -107±9% | 4.19 ± 1.07 | inactive | inactive |  | -106% |  | 7.94 |  |  |  |  |  |
| CO[C@H]1C[C@H](O[C@H]2[C@H](C)O[C@@H](O[C@@H]3/C(C)=C/C[C@@H]4C[C@@H](C[C@]5(C=C[C@H](C)[C@@H](C6CCCCC6)O5)O4)OC(=O)[C@@H]4C=C(C)[C@@H](O)[C@H]5OC/C(=C\C=C\[C@@H]3C)[C@]54O)C[C@@H]2OC)O[C@@H](C)[C@@H]1O [Doramectin] | -80±13% | 11.9 | inactive | inactive |  | -117% |  | 17.3 |  |  |  |  |  |
| CC(O)C(=O)O.CCOc1ccc2nc3cc(N)ccc3c(N)c2c1.O [Ethacridine lactate hydrate] | -103±8% | 3.22 ± 0.55 |  | -98±24% |  |  | 10.2 ± 5.58 | 5.48 |  |  |  |  |  |
| CC/C=C\C/C=C\C/C=C\CCCCCCCC(=O)OCC [Ethyl linolenate] | -51±21% | 49.6 ± 36 | inactive | inactive | inactive | inactive |  |  |  |  |  |  |  |
| CCCCCCOc1ccccc1C(N)=O [Exalamide] | -73±11% | 9.81 ± 3 |  | -59±17% | inactive | inactive |  |  |  | 29.2 ± 2.37 |  |  |  |
| CN1CC(=O)NC1=NC(=O)Nc1cccc(Cl)c1 [Fenobam; McN-3377] | -70±17% | 25.9 ± 1.87 | inactive | inactive | inactive | inactive |  |  |  |  |  |  |  |
| CN(C)C(=O)Nc1ccccc1 [Fenuron] | inactive |  | inactive | inactive | inactive | inactive |  |  | inactive |  |  |  |  |
| CCC(=O)O[C@]1(C(=O)SCF)[C@H](C)C[C@H]2[C@@H]3C[C@H](F)C4=CC(=O)C=C[C@]4(C)[C@@]3(F)[C@@H](O)C[C@@]21C [Fluticasone propionate] | -58±17% |  | inactive | inactive | inactive | inactive |  |  |  |  |  |  | 9.02 ± 1.71 |
| c1ccc2c(c1)OCC(C1=NCCN1)O2 (centres unmarked) [Idazoxan] | -60±9% |  | inactive | inactive | inactive | inactive |  |  |  |  |  |  | 20.6 ± 7.46 |
| O=C(O)C(=O)Cc1c[nH]c2ccccc12 [Indole-3-pyruvic acid] | -85±21% |  |  | -72±42% |  | -89% | 21.3 ± 17.9 | 11.2 |  |  |  |  | 28.9 ± 16.7 |
| CC(C)COC(=O)c1ccc(O)cc1 [Isobutylparaben] | -91±6% |  | inactive | inactive |  | -129% |  | 14.1 |  |  |  |  | 14.2 ± 1.82 |
| CCCCCCCC[N+](C)(CCCCCCCC)CCCCCCCC.O=S(=O)([O-])C(F)(F)F [Methyltrioctylammonium trifluoromethanesulfonate] | -86±9% |  |  | -73±33% |  | -105% | 11.4 ± 2.12 | 2.24 |  |  |  |  | 2.16 ± 0.72 |
| CC(C)(O)c1ccccc1CC[C@@H](SCC1(CC(=O)O)CC1)c1cccc(/C=C/c2ccc3ccc(Cl)cc3n2)c1 [Montelukast sodium] | -72±20% |  |  |  |  |  |  |  |  | 24.1 ± 9.54 | inactive | inactive |  |
| CCN(C(=O)N(CC)c1ccccc1)c1ccccc1 [N,Nφ-Diethylcarbanilide] | -69±23% |  |  | -58±11% | inactive | inactive | 13.1 ± 16.4 |  |  |  |  |  | 21.7 ± 38.2 |
| CCCCCCCC[N+](C)(CCCCCCCC)CCCCCCCC.[Cl-] [N-Methyl-N,N-dioctyloctan-1-aminium chloride] | -80±6% |  |  | -100±17% |  | -89% | 19.6 ± 4.89 | 10 |  |  |  |  | 2.73 ± 0.32 |
| CCCCCCCCCOC(=O)c1ccc(O)cc1 [Nonylparaben] | -101±6% |  | inactive | inactive |  | -110% |  | 7.94 |  |  |  |  | 4.43 ± 0.3 |
| C#C[C@]1(OC(=O)CCCCCC)CC[C@H]2[C@@H]3CCC4=CC(=O)CC[C@@H]4[C@H]3CC[C@@]21C [Noristerat] | -87±18% |  | inactive | inactive |  | -117% |  | 21.8 |  |  |  |  | 9.81 ± 1.78 |
| C[C@H](/C=C/[C@H](C)C(C)(C)O)[C@H]1CC[C@H]2/C(=C/C=C3C[C@@H](O)C[C@H](O)C3)CCC[C@]12C [Paricalcitol] | -69±16% |  | inactive | inactive | inactive | inactive |  |  |  |  |  |  | 8.91 ± 1.56 |
| Cc1cccc(C(C)(C)C)c1O [Phenol, 2-(1,1-dimethylethyl)-6-methyl-] | inactive |  | inactive | inactive | inactive | inactive |  |  | inactive |  |  |  |  |
